Measurements: patent US7071218B2, “N-substituted heterocycles for the treatment of hypercholesteremia, dyslipidemia and other metabolic disorders; cancer, and other diseases” (Incyte San Diego Incorporated, priority 2001, dated 2006)

Key:
[1] = Oral treatment of hypercholesterolemia in Sprague Dawley rats on a high cholesterol atherogenic diet (serum cholesterols); type: in vivo; conditions: 20 mg/kg once daily by oral gavage for five days
Procedure: Six week-old male Sprague Dawley rats (HSD, Harlan) were housed in a fixed 12–12-hr artificial light-dark cycle, and maintained on a high cholesterol, atherogenic diet ad libitum (# C13002, Research Diets, New Jersey).
Animals were maintained on this diet throughout the course of the study.
Following six days of maintenance on the high cholesterol diet, the animals were bled from the tail vein (100–200 μL of whole blood) and serum levels of total cholesterol were measured in duplicate (Infinity Cholesterol Kit; Sigma, St. Louis, Mo.). Based on these initial measures, animals were sorted into groups with approximately the same average serum cholesterol levels. Once sorted, the animals were housed three per cage and maintained on the high cholesterol diet ad libitum.
Treatment groups (n=6/group): • 1) High cholesterol fed control (sesame oil) • 2) Compound 7 (20 mg/kg; once daily)
Compound 7 was mixed in sesame oil, and administered to animals in a volume of 3 mL/kg/dose. Compound 7 was administered by oral gavage daily for five consecutive days.
To monitor the effect of Compound 7, animals were bled from the tail vein five days after commencement of oral treatment. Serum cholesterols were measured in duplicate. The blood is kept at room temperature to allow coagulation, after which the serum is separated and assayed for total cholesterol (see FIG. 1), high density lipoprotein cholesterol (see FIG. 2) and low density lipoprotein cholesterol levels (see FIG. 3). […] Similarly, Compound 7 reduced LDL cholesterol levels compared to controls (ANOVA, Fisher's Least significant difference test, p≦0.01). Finally, Compound 7 increased HDL cholesterol levels compared to controls (ANOVA, Fisher's Least significant difference test, p<0.01).

[2] = test system: 3T3-L1 cells; test: 3T3-L1 adipocyte differentiation (lipid content), alone or with rosiglitazone (BRL49653); type: cell-based, mouse; conditions: 7 days of treatment
Source text: The mouse preadipocyte cell line 3T3-L1 has been extensively used to study adipocyte differentiation. Upon stimulation with differentiating agents, preadipocytes typically undergo one cell cycle expansion and then they are growth arrested and dramatically change their shape to become more rounded cells, loaded with lipids, in a fashion closely reflecting adipogenesis in vivo. In this well-known process of differentiation, peroxisome proliferator activated receptor gamma (PPARγ) and retinoid X receptor (RXR) play a key role. PPARγ binds as an obligatory heterodimer with RXR to specific responsive sequences in the promoter region of target genes. In the particular case of PPARγ/RXR heterodimers, both receptors can be activated via their specific ligands. As a consequence of such activation, adipocyte-specific genes are turned on (C/EBP, aP2, LPL, adipsin, etc) and adipocyte differentiation results. Because lipid accumulation is the endpoint of adipocyte differentiation, the quantification of lipids which have accumulated in cells upon treatment with the compound(s) of interest, will indicate the ability of that compound to trigger adipocyte differentiation. More importantly, the potency of that compound can be estimated as well based on the total amount of lipids accumulated. The amount of lipid measured at the end of the assay for each tested compound is here compared to that of Compound 73 at 0.1 μM, which is considered 100% (see FIG. 11A).
In the particular case of measuring the potential antagonistic activity of some compounds, the putative antagonist is combined together with an agonist (such as the PPARγ agonist BRL49653). Thus, the amount of lipids accumulated in response to BRL49653 (considered as 100% in this case), is decreased by the compound with antagonistic activity (see FIG. 11B).
Materials and Methods: Mouse embryo fibroblast 3T3-L1 cell line, from American Type Culture Collection (ATCC), was used as a model of adipocyte differentiation.
Growing medium (GM): DME Dulbecco's modified Eagle's medium containing 4500 mg/L glucose; 4 mM L-glutamine; 10 U/ml Pen-G; 10 mcg/ml and 10% Calf Serum (CS).
Differentiation medium (DM): DME Dulbecco's modified Eagle's medium containing 4500 mg/L glucose; 4 mM L-glutamine; 10 U/ml Pen-G; 10 mcg/ml and 10% Fetal Calf Serum (FCS). Cells are always kept at 10% CO2.
Cells were seeded at 3,000 cells/well in 96 well-tissue culture plates in growing medium.
Two days after reaching confluence, cells were treated with the different compounds of interest in DM (Day 0). Drugs were replaced every 2–3 days in DM. Differentiation was assessed after 7 days of treatment, by measuring the lipid content in the cells, using the Triglyceride (INFINITY) reagent (Quantitative assay). • Controls: All cells, including control cells (vehicle), are treated with the same volume of dimethyl sulfoxide (DMSO) never exceeding 0.1% final solvent concentration. As a positive control for differentiation, cells were treated with 10 μg insulin per ml and 2.5 μM dexamethasone (Ins/Dex).

CN(C)c1cc2c(cc1-c1ccc3cc(/C=C4\SC(=S)N(CC(=O)O)C4=O)ccc3c1)C(C)(C)CCC2(C)C [Compound 7, {5-[6-(3-Dimethylamino-5,5,8,8-tetramethyl-5,6,7,8-tetrahydro-naphthalen-2-yl)-naphthalen-2-ylmethylene]-4-oxo-2-thioxo-thiazolidin-3-yl}-acetic acid]
HDL cholesterol levels compared to controls ([1]; p<0.01): increased
LDL cholesterol levels compared to controls ([1]; p≦0.01): reduced
total serum cholesterol compared to control animals ([1]; p≦0.01): significantly reduced
lipid accumulation / differentiation of 3T3-L1 cells by the compound alone ([2]; 1e-10M to 1e-5M): lacked the ability to differentiate 3T3-L1 cells by themselves
inhibition of adipocyte differentiation / lipid accumulation induced by rosiglitazone (BRL49653) ([2]; in combination with rosiglitazone): strongly inhibited
